Data reported in patent US8962664B2, “Selective glycosidase inhibitors and uses thereof” (Simon Fraser University, priority 2006, dated 2015).
“Also recorded” adds a separate entry of the source.

Assays:
Type in all cases: in vivo, Sprague-Dawley rats
[1] = system: tau phosphorylation levels in brain tissue; assay: Decrease of rat brain tau phosphorylation levels (oral NAG-AE); conditions: rats, 200 mg/kg/day in drinking water for one day
Experimental: The effect of oral administration of (3aR,5R,6S,7R,7aR)-2-(ethylamino)-5-(hydroxymethyl)-5,6,7,7a-tetrahydro-3aH-pyrano[3,2-d]thiazole-6,7-diol (Compound 25, NAG-AE) on tau phosphorylation levels in brain tissue in Sprague-Dawley rats was measured. All animals were obtained from Charles-River as 5-week old healthy male Sprague-Dawley rats. Animals were given one week to acclimatize and at six weeks of age the appropriate treatment was initiated. Three animals received 200 mg/kg/day of NAG-AE in their drinking water for one day. Three additional animals received drinking water containing no NAG-AE and were used as controls. Immediately following the dosing period, all animals were sacrificed and brains were removed, stored, and processed as described in Example 29.
Western Blots. Samples were separated through 10% sodium dodecyl sulfate polyacrylamide gels (SDS-PAGE) and then transferred to nitrocellulose (Bio-Rad) membranes. Membranes were then blocked for 1 h at room temperature (RT) with 1% bovine serum albumin (BSA) in PBS containing 0.1% Tween-20 (Sigma) (PBS-T) and then subsequently probed with appropriate primary antibody delivered in 1% BSA in PBS-T for either 1 h at RT or overnight at 4° C. Membranes were then extensively washed with PBS-T, blocked again for 30 min with 1% BSA in PBS-T at RT and then probed with the appropriate HRP conjugated secondary antibody for 1 h at RT delivered in 1% BSA in PBS-T. Finally, the membranes were washed extensively and then developed with SuperSignal West Pico Chemiluminesence substrate (Pierce) and exposed to CL-XPosure Film (Pierce).
Antibodies. Mouse monoclonal α-Tau-5 which recognizes the central region of tau in a phosphorylation state independent manner was purchased from Lab Vision Corporation and used at a dilution of 1:500. Rabbit polyclonal […], and α-Tau [pS^422] recognize phosphorylated Thr-231, Ser-396, and Ser-422 respectively, and were purchased from Biosource International and used at a dilution of 1:1000. Mouse monoclonal α-O-GlcNAc (CTD110.6) which recognizes the O-GlcNAc monosaccharide modification was purchased from Covance and used at a dilution of 1:2500. Mouse monoclonal α-actin (clone AC-40) was purchased from Sigma and was used at a dilution of 1:1000.

[2] = system: levels of O-GlcNAc modification in brain and muscle tissue; assay: Dose-dependent elevation of rat brain and muscle O-GlcNAc levels (IV); conditions: rats, seven hours
Experimental: The effect of intravenous (IV) administration of (3aR,5R,6S,7R,7aR)-5-(hydroxymethyl)-2-propyl-5,6,7,7a-tetrahydro-3aH-pyrano[3,2-d]thiazole-6,7-diol (Compound 54; hereinafter referred to as NAG-Bt) on levels of O-GlcNAc modification in brain and muscle tissue in Sprague-Dawley rats was measured. Animals were obtained from Charles-River as 5-week old healthy male Sprague-Dawley rats. Animals were given one week to acclimatize and at six weeks of age the appropriate treatment was initiated. Eight animals were given intravenous tail vein injections of various concentrations of NAG-Bt or vehicle alone (PBS); doses of NAG-Bt included 0, 2, 5, 10, 25, 50, 100, and 250 mg/kg. Seven hours later animals were sacrificed and tissues were removed from animals as quickly as possible to minimize post-mortem delay. Tissues were immediately frozen in liquid nitrogen and stored at −80° C. until further use. Homogenization of the tissues was carried out by manual grinding followed by homogenization in cell lysis buffer (50 mM Tris, pH 8.0, 1 mM PMSF, 0.1% NP-40, 1 mM NAG-Bt) using a tissue homogenizer (IKA) at 4° C. Insoluble cell debris was removed by centrifugation at 17,900×g for 20 minutes at 4° C. and the resulting supernatant was stored at −20° C. until use.
Western blotting of the samples thus obtained was carried out using the α-O-GlcNAc antibody (CTD110.6; Covance) and the α-actin antibody as described previously.^106 Equal amounts of homogenized brain and muscle tissue from animals treated with NAG-Bt or vehicle alone were separated by SDS-PAGE followed by probing with the primary a-O-GlcNAc antibody and an anti-IgM-mouse IgG-HRP conjugate. […] FIGS. 1C and 1D are Western blots of samples loaded in the upper panels (FIGS. 1A and 1B) probed using anti-β-actin mAb clone AC-40 followed by an anti-mouse IgG-HRP conjugate, and reveal equivalent sample loading.

[3] = system: tau phosphorylation levels in brain tissue; assay: Decrease of rat brain tau phosphorylation levels (NAG-Bt); conditions: rats, 100 mg/kg/day in food for five days then 50 mg/kg IV, Western blot
Experimental: The effect of oral administration of NAG-Bt on tau phosphorylation levels in brain tissue in Sprague-Dawley rats was measured. All animals were obtained from Charles-River as 5-week old healthy male Sprague-Dawley rats. Animals were given one week to acclimatize and at six weeks of age the appropriate treatment was initiated. Four animals were fed food containing 100 mg/kg/day of NAG-Bt for five days. Four additional animals fed with food containing no inhibitor were used as controls. At the end of five days, the animals were fasted for 11 hours, then the four animals that received NAG-Bt in food were each given an intravenous tail vein injection of 50 mg/kg NAG-Bt. All animals were fasted for a further 5 hours, then they were sacrificed and brains were removed, stored, and processed as described in Example 29.
Western blotting of the samples thus obtained was carried out using the α-O-GlcNAc antibody (CTD110.6; Covance) and a-Actin antibody as described previously.^106 For Tau blotting, pS199, pS214, pS217, pS262, pS396, and pS422 (Biosource), Tau-5 (Lab Vision; a non-PTM dependent tau antibody), Tau-1 (Chemicon; selective for nonphosphorylated Ser195, Ser198, Ser199, and Ser202), and pS404 (Sigma) antibodies were used according to the manufacturer's protocols. Equal amounts of homogenized brain tissue from an animal treated with and without NAG-Bt were separated by SDS-PAGE followed by probing with each of the primary antibodies and an appropriate secondary antibody (either an anti-mouse or anti-rabbit IgG-HRP conjugate, as appropriate). The resulting Western blots are shown in FIGS. 2A-I, and reveal decreases of brain tau phosphorylation at multiple sites following treatment with NAG-Bt; lanes labeled “+” indicate samples from animals receiving NAG-Bt, while lanes labeled “-” indicate samples from animals receiving vehicle alone.

[4] = IV 250 mg/kg, densitometry of Western blot

## CCNC1=N[C@@H]2[C@@H](O)[C@H](O)[C@@H](CO)O[C@@H]2S1 [NAG-AE, (3aR,5R,6S,7R,7aR)-2-(ethylamino)-5-(hydroxymethyl)-5,6,7,7a-tetrahydro-3aH-pyrano[3,2-d]thiazole-6,7-diol]
[1]; Western blot
  brain tau phosphorylation at Ser-396, Thr-231, and Ser-422: reduction; also recorded: decreases
  global levels of O-GlcNAc in brain: increases
[1]; densitometry
  reduction of tau phosphorylation at Ser-396: ~3.1 fold
  reduction of tau phosphorylation at Ser-422: ~1.8 fold
  reduction of tau phosphorylation at Thr-231: ~2.7 fold

## CCCC1=N[C@@H]2[C@@H](O)[C@H](O)[C@@H](CO)O[C@@H]2S1 [NAG-Bt, (3aR,5R,6S,7R,7aR)-5-(hydroxymethyl)-2-propyl-5,6,7,7a-tetrahydro-3aH-pyrano[3,2-d]thiazole-6,7-diol]
[2]; IV 0 to 250 mg/kg, Western blot
  O-GlcNAc levels in brain and muscle tissue: dose-dependent elevation
[2]; [4]
  elevation of O-GlcNAc levels over baseline in brain tissue: roughly 25 fold
  elevation of O-GlcNAc levels over baseline in muscle tissue: roughly 10 fold
[2]; IV, O-GlcNAc levels
  minimum IV dose required for an observable effect in brain: roughly 5 mg/kg
[3]
  brain tau phosphorylation at Ser214 and Ser404: increases phosphorylation
  brain tau phosphorylation at Thr231 and Ser396: essentially blocks phosphorylation
  brain tau phosphorylation at the Tau-1 epitope (Ser195, Ser198, Ser199, Ser202), Ser199, Ser262, Ser396, Ser422, and Thr231: decreases in phosphorylation
